Numbers after ± are expanded uncertainties.
Experiment: xn = mol fraction of the nth substance listed
Details: 101 kPa, Liquid; for viscosity: Capillary tube (Ostwald / Ubbelohde) method; for mass density: Pycnometric method

CC(O)C(=O)[O-].[NH3+]CCO (stereo unspecified) [2-hydroxyethylammonium lactate] + O
Details | mass density [kg/m3] | viscosity [mPa·s]
303.15 K, x2 = 0 | 1226.1 ± 2.4 | 11341 ± 1100
303.15 K, x2 = 0.116 | 1225.3 ± 2.3 | 6523.5 ± 560
303.15 K, x2 = 0.2026 | 1223 ± 2.2 | 3828.7 ± 300
303.15 K, x2 = 0.3045 | 1220 ± 2.2 | 2137.9 ± 150
303.15 K, x2 = 0.4043 | 1216.5 ± 2.1 | 1051 ± 66
303.15 K, x2 = 0.5027 | 1210.1 ± 2.1 | 498.98 ± 27
303.15 K, x2 = 0.6023 | 1203.2 ± 2.1 | 212 ± 10
303.15 K, x2 = 0.7016 | 1190.3 ± 2 | 74.69 ± 3.2
303.15 K, x2 = 0.8022 | 1167.2 ± 2 | 22.28 ± 0.95
303.15 K, x2 = 0.9007 | 1121 ± 2 | 5.19 ± 0.22
303.15 K, x2 = 0.9501 | 1076 ± 2 | 2.24 ± 0.09
308.15 K, x2 = 0 | 1223.1 ± 2.4 | 6699.9 ± 580
308.15 K, x2 = 0.116 | 1222.2 ± 2.3 | 3975.1 ± 320
308.15 K, x2 = 0.2026 | 1219.9 ± 2.2 | 2401.1 ± 170
308.15 K, x2 = 0.3045 | 1216.9 ± 2.2 | 1372.6 ± 90
308.15 K, x2 = 0.4043 | 1213.4 ± 2.1 | 675.18 ± 39
308.15 K, x2 = 0.5027 | 1206.9 ± 2.1 | 343.45 ± 17
308.15 K, x2 = 0.6023 | 1200.2 ± 2.1 | 156.6 ± 7
308.15 K, x2 = 0.7016 | 1187.2 ± 2 | 56.32 ± 2.3
308.15 K, x2 = 0.8022 | 1164.2 ± 2 | 18.03 ± 0.73
308.15 K, x2 = 0.9007 | 1118.2 ± 2 | 4.46 ± 0.18
308.15 K, x2 = 0.9501 | 1073.5 ± 2 | 1.97 ± 0.08
313.15 K, x2 = 0 | 1220.4 ± 2.5 | 4144.6 ± 330
313.15 K, x2 = 0.116 | 1219.5 ± 2.3 | 2468.4 ± 180
313.15 K, x2 = 0.2026 | 1217.1 ± 2.2 | 1570.4 ± 110
313.15 K, x2 = 0.3045 | 1214.1 ± 2.2 | 900.49 ± 55
313.15 K, x2 = 0.4043 | 1210.6 ± 2.1 | 458.18 ± 25
313.15 K, x2 = 0.5027 | 1204.1 ± 2.1 | 243.72 ± 12
313.15 K, x2 = 0.6023 | 1197.3 ± 2.1 | 109.99 ± 4.7
313.15 K, x2 = 0.7016 | 1184.3 ± 2 | 43.42 ± 1.8
313.15 K, x2 = 0.8022 | 1161.5 ± 2 | 14.62 ± 0.59
313.15 K, x2 = 0.9007 | 1115.7 ± 2 | 3.83 ± 0.16
313.15 K, x2 = 0.9501 | 1071.2 ± 2 | 1.74 ± 0.07
318.15 K, x2 = 0 | 1217.4 ± 2.5 | 2653.8 ± 200
318.15 K, x2 = 0.116 | 1216.3 ± 2.3 | 1615.5 ± 110
318.15 K, x2 = 0.2026 | 1213.9 ± 2.3 | 1047.4 ± 66
318.15 K, x2 = 0.3045 | 1211 ± 2.2 | 601.07 ± 34
318.15 K, x2 = 0.4043 | 1207.6 ± 2.1 | 321.24 ± 16
318.15 K, x2 = 0.5027 | 1201 ± 2.1 | 174.88 ± 7.9
318.15 K, x2 = 0.6023 | 1194.2 ± 2.1 | 83.91 ± 3.5
318.15 K, x2 = 0.7016 | 1181.2 ± 2 | 34.39 ± 1.4
318.15 K, x2 = 0.8022 | 1158.4 ± 2 | 11.85 ± 0.48
318.15 K, x2 = 0.9007 | 1112.7 ± 2 | 3.35 ± 0.14
318.15 K, x2 = 0.9501 | 1068.4 ± 2 | 1.57 ± 0.06
323.15 K, x2 = 0 | 1214.9 ± 2.5 | 1733.6 ± 120
323.15 K, x2 = 0.116 | 1213.7 ± 2.3 | 1084.5 ± 68
323.15 K, x2 = 0.2026 | 1211.3 ± 2.3 | 717.58 ± 42
323.15 K, x2 = 0.3045 | 1208.3 ± 2.2 | 418.69 ± 22
323.15 K, x2 = 0.4043 | 1204.9 ± 2.1 | 232.51 ± 11
323.15 K, x2 = 0.5027 | 1198.1 ± 2.1 | –
323.15 K, x2 = 0.6023 | 1191.5 ± 2.1 | 64.89 ± 2.6
323.15 K, x2 = 0.7016 | 1178.4 ± 2 | 27.88 ± 1.1
323.15 K, x2 = 0.8022 | 1155.7 ± 2 | 9.96 ± 0.4
323.15 K, x2 = 0.9007 | 1110.1 ± 2 | 2.94 ± 0.12
323.15 K, x2 = 0.9501 | 1065.8 ± 2 | 1.41 ± 0.06
328.15 K, x2 = 0 | 1212 ± 2.5 | 1182.5 ± 76
328.15 K, x2 = 0.116 | 1210.6 ± 2.3 | 742.12 ± 44
328.15 K, x2 = 0.2026 | 1208.1 ± 2.3 | 478.37 ± 26
328.15 K, x2 = 0.3045 | 1205.3 ± 2.2 | 299.81 ± 15
328.15 K, x2 = 0.4043 | 1201.7 ± 2.1 | 173.38 ± 7.8
328.15 K, x2 = 0.5027 | 1195.1 ± 2.1 | 99.46 ± 4.2
328.15 K, x2 = 0.6023 | 1188.4 ± 2.1 | 50.52 ± 2
328.15 K, x2 = 0.7016 | 1175.3 ± 2.1 | 22.65 ± 0.91
328.15 K, x2 = 0.8022 | 1152.6 ± 2.1 | 8.43 ± 0.34
328.15 K, x2 = 0.9007 | 1107 ± 2.1 | 2.61 ± 0.11
328.15 K, x2 = 0.9501 | 1063 ± 2.1 | 1.25 ± 0.05

From the NIST ThermoML archive (doi:10.1021/je3009073)
